Data from article PMC10949010, “A myo-inositol dehydrogenase involved in aminocyclitol biosynthesis of hygromycin A” (Beilstein Journal of Organic Chemistry, 2024).

How the values were obtained:
Hyg17 = molecular target: T1, Hyg17 (Streptomyces leeuwenhoekii, UniProt A0A0F7VN41); assay: NADH formation, absorbance at […] nm, initial rates […]-5 min; assay type: biochemical; settings: 100 mM CAPS, 50 mM NaCl, pH 10.5, 25 °C
T1 construct: cloned NdeI/XhoI in pTip-QC1, expressed in Rhodococcus jostii RHA1, Ni-NTA and size exclusion; primers encode N-terminus MTVAVVG and C-terminus SVPVAP before LE (XhoI)
T1 sequence (A0A0F7VN41 whole entry): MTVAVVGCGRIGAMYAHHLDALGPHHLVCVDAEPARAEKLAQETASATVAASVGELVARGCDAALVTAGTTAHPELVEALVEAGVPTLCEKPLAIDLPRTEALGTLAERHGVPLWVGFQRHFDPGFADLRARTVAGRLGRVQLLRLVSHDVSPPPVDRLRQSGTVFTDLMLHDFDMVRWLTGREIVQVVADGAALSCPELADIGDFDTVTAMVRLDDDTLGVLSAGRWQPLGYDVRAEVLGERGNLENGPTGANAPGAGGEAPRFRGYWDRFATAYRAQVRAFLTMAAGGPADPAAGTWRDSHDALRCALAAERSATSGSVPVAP

BsIDH = molecular target: T2, BsIDH (Bacillus subtilis, UniProt P26935); assay: thin-layer chromatography of ketone product; assay type: biochemical; settings: 10 mM myo-inositol, 10 mM NAD+, 100 mM CAPS, 50 mM NaCl, pH 10.5
T2 construct: gene iolG; codon-optimised synthetic gene in pET28a, expressed in E. coli BL21 star (DE3), Ni-NTA and size exclusion
T2 sequence (P26935 whole entry): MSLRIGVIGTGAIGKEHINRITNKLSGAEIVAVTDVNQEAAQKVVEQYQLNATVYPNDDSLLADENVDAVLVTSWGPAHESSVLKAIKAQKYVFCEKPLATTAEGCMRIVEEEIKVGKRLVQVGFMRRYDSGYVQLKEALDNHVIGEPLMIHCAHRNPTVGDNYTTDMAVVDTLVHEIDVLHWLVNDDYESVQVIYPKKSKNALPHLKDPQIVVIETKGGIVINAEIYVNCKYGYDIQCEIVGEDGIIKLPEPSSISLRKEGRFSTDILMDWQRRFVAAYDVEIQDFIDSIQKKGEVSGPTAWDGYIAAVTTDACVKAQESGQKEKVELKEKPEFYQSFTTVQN

NC(=O)c1ccc[n+]([C@@H]2O[C@H](COP(=O)(O)OP(=O)(O)OC[C@H]3O[C@@H](n4cnc5c(N)ncnc54)[C@H](O)[C@@H]3O)[C@@H](O)[C@H]2O)c1 [NAD^+]
Km (Hyg17; 10 mM myo-inositol): 4.2 ± 0.49 mM

O[C@H]1[C@H](O)[C@@H](O)[C@H](O)[C@@H](O)[C@H]1O [myo-inositol]
thin-layer chromatography of ketone product (BsIDH): We found that both enzymes generated a ketone product with identical retention factors | Km (Hyg17; 10 mM NAD+): 9 ± 1.1 mM

O[C@H]1[C@H](O)[C@@H](O)[C@H](O)[C@@H](O)[C@@H]1O [scyllo-inositol]
Km (Hyg17; 10 mM NAD+): 20.3 ± 3.3 mM
